Values after ≈ are worked out from the molar mass of the structure shown.
Columns and labels:
[1] = system: Acinetobacter calcoaceticus AC12; assay: standard agar-dilution MIC assay; format: cell-based
Source text: (§1) Table V summarizes the minimal inhibitory concentrations (MIC) at which factor S-1 inhibits certain organisms as determined by standard agar-dilution assays. In Table V, the activity of factor S-1 is compared with that of rifampin.

[2] = system: Citrobacter freundii CF17; assay: standard agar-dilution MIC assay; format: cell-based; conditions: agar dilution; Citrobacter freundii CF17; read-out: MIC
Source text: as §1

[3] = system: Enterobacter aerogenes C32; assay: standard agar-dilution MIC assay; format: cell-based; conditions: Klebsiella aerogenes; agar dilution; Enterobacter aerogenes C32; read-out: MIC
Source text: as §1

[4] = system: Enterobacter aerogenes EB17; assay: standard agar-dilution MIC assay; format: cell-based; conditions: Klebsiella aerogenes; agar dilution; Enterobacter aerogenes EB17; read-out: MIC
Source text: as §1

[5] = system: Enterobacter cloacae 265A; assay: standard agar-dilution MIC assay; format: cell-based; conditions: agar dilution; Enterobacter cloacae 265A; read-out: MIC
Source text: as §1

Escherichia coli EC14 = assay: standard agar-dilution MIC assay; format: cell-based
Source text: as §1

Escherichia coli TEM = assay: standard agar-dilution MIC assay; format: cell-based
Source text: as §1

[6] = system: Klebsiella pneumoniae X68; assay: standard agar-dilution MIC assay; format: cell-based; conditions: agar dilution; Klebsiella pneumoniae X68; read-out: MIC
Source text: as §1

Proteus morganii PR15 = assay: standard agar-dilution MIC assay; format: cell-based; conditions: Morganella morganii; agar dilution; Proteus morganii PR15; read-out: MIC
Source text: as §1

[7] = system: Pseudomonas aeruginosa Ps72; assay: standard agar-dilution MIC assay; format: cell-based
Source text: as §1

[8] = system: Pseudomonas aeruginosa X239; assay: standard agar-dilution MIC assay; format: cell-based; conditions: agar dilution; Pseudomonas aeruginosa X239; read-out: MIC
Source text: as §1

[9] = system: Pseudomonas aeruginosa X528; assay: standard agar-dilution MIC assay; format: cell-based; conditions: agar dilution; Pseudomonas aeruginosa X528; read-out: MIC
Source text: as §1

Salmonella typhi X514 = assay: standard agar-dilution MIC assay; format: cell-based; conditions: Salmonella enterica
Source text: as §1

[10] = system: Staphylococcus epidermidis 222; assay: standard agar-dilution MIC assay; format: cell-based; conditions: agar dilution; Staphylococcus epidermidis 222; read-out: MIC
Source text: as §1

[11] = system: Staphylococcus epidermidis EPI1; assay: standard agar-dilution MIC assay; format: cell-based
Source text: as §1

[12] = system: Streptococcus faecium ATCC 9790; assay: standard agar-dilution MIC assay; format: cell-based; conditions: Enterococcus faecium, ATCC9790; agar dilution; Streptococcus faecium ATCC 9790; read-out: MIC
Source text: as §1

pathogenic bacteria = assay: growth inhibition of pathogenic bacteria (general statement); format: cell-based
Source text: as §1

rumen flora = assay: ruminant feed-utilization activity (VFA and methane production in treated vs control flasks); format: cell-based
Source text: Animals having a developed rumen function utilize feed by first degrading the carbohydrate (the main nutritive portion) to pyruvate. The pyruvate is further metabolized to volatile fatty acid (VFA) derivatives, which include acetate, propionate and butyrate. It is known that the efficiency of carbohydrate utilization in ruminants is increased by treatments which stimulate the animals' rumen flora to produce propionate compounds rather than acetate or butyrate compounds. Feed-utilization efficiency can also be improved by inhibiting methane production. When methane gas is produced in the rumen, it is generally lost through eructation. This energy loss can be minimized by inhibiting methane formation.

[13] = system: bacteria normally present in the monogastric digestive system; assay: glucose sparing / feed-utilization efficiency in monogastric animals; conditions: statement in words
Source text: Yet another important property of factor S-1 is its ability to improve feed-utilization efficiency in monogastric animals. Commercially important monograstric animals include chickens and pigs. In addition, young ruminants, especially those still unweaned, function as monogastric animals. In the monogastric animal, bacteria and the host compete for nutrients in the digestive process. Agents which cause the bacteria to use less efficient substrates, leaving more efficient substrates such as glucose for the host animal, increase the feed-utilization efficiency of the host animal.

titration = format: physicochemical; conditions: 66% aqueous dimethylformamide
Micrococcus luteus = assay: antibiotic activity of column fractions; format: cell-based
Method: Whole broth (100 L), prepared in a manner similar to that of Example 1, Section B, was filtered using a filter aid (Hyflo Supercel, Johns-ManvilleCorp.). The filtered broth (86 L) is adjusted to pH 2 with 5N hydrochloric acid and then is extracted twice with ethyl acetate (1/2 volumes). The ethyl acetate extracts are concentrated under vacuum to give an oily residue (49 g). This residue is dissolved in methanol and placed on a 10-L Diaion HP-20 column (Mitsubishi Industries). The column is washed with water (500 ml) and eluted with acetonitrile:water (30 L of 3:7 and 50 L of 3:2) and acetonitrile (20 L). Elution is carried out at a rate of 100 ml/min., collecting 4-liter fractions. Fractions are tested for antibiotic activity against Micrococcus luteus, Escherichia coli, and Neurospora crassa.
Factor S-1 is further purified in 200-mg portions by dissolving it in methanol and chromatographing the solution on a 1"×30-cm column packed with Zorbax ODS (12μ) (E. I. duPont). The column is eluted at 10 ml/min with 45% acetonitrile in 0.01% trifluoroacetic acid (400 ml) and then with a 400-ml gradient of from 45%-100% acetonitrile in 0.01% trifluoroacetic acid. Fractions are checked by UV absorption at 264 nm and by disc bioassay against M. luteus. Fractions containing only factor S-1 are combined, concentrated and lyophilized to dryness. […]

`CC(=O)OC1C(C)C(O)C=COC2(C)Oc3c(C)c(O)c4c(c3C2=O)C(=O)C(C)=C(NC(=O)C=CC=CC(C)C(O)C(C)C(O)C1C)C4=O` (centres unmarked) [Factor S-1] gave an MIC [1] of 2 µg/mL (≈ 2.93 µM), an MIC [2] of 16 µg/mL (≈ 23.5 µM) and an MIC [3] of 16 µg/mL (≈ 23.5 µM). The MIC [4] was 32 µg/mL (≈ 46.9 µM), the MIC [5] was 32 µg/mL (≈ 46.9 µM) and the MIC (Escherichia coli EC14) was 16 µg/mL (≈ 23.5 µM). For the same compound, the MIC (Escherichia coli TEM) was > 128 µg/mL, the MIC [6] was 16 µg/mL (≈ 23.5 µM) and the MIC (Proteus morganii PR15) was 8 µg/mL (≈ 11.7 µM). For the same compound, the MIC [7] was 16 µg/mL (≈ 23.5 µM), the MIC [8] was 16 µg/mL (≈ 23.5 µM) and the MIC [9] was 16 µg/mL (≈ 23.5 µM). For the same compound, the MIC (Salmonella typhi X514) was 32 µg/mL (≈ 46.9 µM), the MIC [10] was < 8 ng/mL and the MIC [11] was < 8 ng/mL. For the same compound, the MIC [12] was 1 µg/mL (≈ 1.47 µM), the “inhibition of growth of pathogenic bacteria” value (pathogenic bacteria) was “inhibits the growth of a broad spectrum of pathogenic bacteria, especially gram-positive bacteria” and the “Ratio of Treated to Control, Molar Percent, acetic” value (shortened to “Ratio … Molar Percent, acetic”) (rumen flora; dose 0.5 ppm) was 1.04. The “Ratio of Treated to Control, Molar Percent, butyric” value (shortened to “Ratio … Molar Percent, butyric”) (rumen flora; dose 0.5 ppm) was 0.57, the “Ratio of Treated to Control, Molar Percent, propionic” value (“Ratio … Molar Percent, propionic” below) (rumen flora; dose 0.5 ppm) was 1.29 and the “Ratio of Treated to Control, mMoles/Day, Total VFA” value (“Ratio … mMoles/Day, Total VFA” below) (rumen flora; dose 0.5 ppm) was 1.18. The “Ratio of Treated to Control, mMoles/Day, acetic” value (“Ratio … mMoles/Day, acetic” for short) (rumen flora; dose 0.5 ppm) was 1.22, the “Ratio of Treated to Control, mMoles/Day, butyric” value (shortened to “Ratio … mMoles/Day, butyric”) (rumen flora; dose 0.5 ppm) was 0.67 and the “Ratio of Treated to Control, mMoles/Day, methane” value (“Ratio … mMoles/Day, methane” for short) (rumen flora; dose 0.5 ppm) was 1.03. For the same compound, the “Ratio of Treated to Control, mMoles/Day, propionic” value (“Ratio … mMoles/Day, propionic” below) (rumen flora; dose 0.5 ppm) was 1.52, the “Ratio … Molar Percent, acetic” value (rumen flora; dose 1 ppm) was 1.05 and the “Ratio … Molar Percent, butyric” value (rumen flora; dose 1 ppm) was 0.48. The “Ratio … Molar Percent, propionic” value (rumen flora; dose 1 ppm) was 1.49, the “Ratio … mMoles/Day, Total VFA” value (rumen flora; dose 1 ppm) was 1.22 and the “Ratio … mMoles/Day, acetic” value (rumen flora; dose 1 ppm) was 1.27. The “Ratio … mMoles/Day, butyric” value (rumen flora; dose 1 ppm) was 0.59, the “Ratio … mMoles/Day, methane” value (rumen flora; dose 1 ppm) was 0.98 and the “Ratio … mMoles/Day, propionic” value (rumen flora; dose 1 ppm) was 1.75. The “Ratio … Molar Percent, acetic” value (rumen flora; dose 2 ppm) was 1.08, the “Ratio … Molar Percent, butyric” value (rumen flora; dose 2 ppm) was 0.43 and the “Ratio … Molar Percent, propionic” value (rumen flora; dose 2 ppm) was 1.55. For the same compound, the “Ratio … mMoles/Day, Total VFA” value (rumen flora; dose 2 ppm) was 1.06, the “Ratio … mMoles/Day, acetic” value (rumen flora; dose 2 ppm) was 1.15 and the “Ratio … mMoles/Day, butyric” value (rumen flora; dose 2 ppm) was 0.46. For the same compound, the “Ratio … mMoles/Day, methane” value (rumen flora; dose 2 ppm) was 1.09, the “Ratio … mMoles/Day, propionic” value (rumen flora; dose 2 ppm) was 1.63 and the “Ratio … Molar Percent, acetic” value (rumen flora; dose 5 ppm) was 1.07. The “Ratio … Molar Percent, butyric” value (rumen flora; dose 5 ppm) was 0.62, the “Ratio … Molar Percent, propionic” value (rumen flora; dose 5 ppm) was 1.30 and the “Ratio … mMoles/Day, Total VFA” value (rumen flora; dose 5 ppm) was 1.07. For the same compound, the “Ratio … mMoles/Day, acetic” value (rumen flora; dose 5 ppm) was 1.16, the “Ratio … mMoles/Day, butyric” value (rumen flora; dose 5 ppm) was 0.66 and the “Ratio … mMoles/Day, methane” value (rumen flora; dose 5 ppm) was 0.50. For the same compound, the “Ratio … mMoles/Day, propionic” value (rumen flora; dose 5 ppm) was 1.39, the “feed-utilization efficiency in ruminants” value (rumen flora; statement in words) was “improve feed-utilization efficiency in ruminants” and the “effect on consumption of glucose by bacteria (glucose sparing)” value [13] was “prevents the consumption of glucose by bacteria normally present in the monogastric digestive system”. The pKa (titration) was 8 and the “activity against M. luteus” value (Micrococcus luteus) was “active”.

Source: patent publication US4560509A, “Antibiotic A39079 factor S-1” (Eli Lilly and Company, priority 1983, dated 1985)
